Earlier results on six molecules are cited in patent US20180371365A1, “FABRIC SOFTENER COMPOSITIONS” (The Procter & Gamble Company, priority 2017, published 2018).

Each structure is given as a SMILES string.

For the series the following is noted: acidifying agents for compositions having pH 3.5 or greater.
Consider `CCCCCCC(=O)O` [heptanoic acid], for which the pKa was 5.1. Take `c1c[nH]cn1` [imidazole]: the pKa is given as 7.0. Regarding `CCCCCCCCC(=O)O` [nonanoic acid], the pKa is given as 5.2. For `O=C(O)C=Cc1ccc(O)cc1` [p-coumaric acid, 4-hydroxy cinnamic acid], the pKa is given as 4.6. For the molecule `C=CCCCCCCCCC(=O)O` [undecylenic acid], the pKa is recorded as 5.0.

Take `OCl` [hypochlorous acid]: the pKa is recorded as 7.0.

For orientation: pKa means the pH at which an ionisable group is half protonated.
